The source made the active and inactive calls. No cut-off for these calls is given here.
What was measured:
Escherichia coli [1] = assay: Effect on rifampicin-induced antibacterial activity against AcrB-deficient Escherichia coli BW25113 assessed as rifampicin MIC at 256 ug/ml after 18 hrs by checkerboard method (reference value: 16 ug/ml); type: functional; settings: BW25113, 18 h
Escherichia coli BW25113 [2] = assay: Inhibition of AcrB in wild-type drug resistant Escherichia coli BW25113 assessed as potentiation of chloramphenicol-induced antibacterial activity by measuring FICI at 128 to 512 ug/ml after 18 hrs by checkerboard method
Escherichia coli BW25113 [3] = assay: Inhibition of AcrB in wild-type drug resistant Escherichia coli BW25113 assessed as potentiation of erythromycin-induced antibacterial activity by measuring erythromycin MIC at 128 ug/ml after 18 hrs by checkerboard method (reference value: 128 ug/ml)
Escherichia coli [4] = assay: Potentiation of tetraphenyl phosphonium chloride-induced antibacterial activity against AcrB-deficient Escherichia coli BW25113 assessed as tetraphenyl phosphonium chloride MIC at 128 ug/ml after 18 hrs by checkerboard method (reference value: 64 ug/ml); type: functional; settings: BW25113, 18 h
HepG2 = assay: Cytotoxicity against human HepG2 cells at 512 to 1024 ug/ml measured every 60 mins for 20 hrs by RealTime-Glo MT cell viability assay; type: cell-based; settings: hepg2, 20 h
Escherichia coli [5] = assay: Potentiation of tetraphenyl phosphonium chloride-induced antibacterial activity against AcrB-deficient Escherichia coli BW25113 assessed as tetraphenyl phosphonium chloride MIC at 512 ug/ml after 18 hrs by checkerboard method (reference value: 64 ug/ml); type: functional; settings: BW25113, 18 h
Escherichia coli BW25113 [6] = assay: Inhibition of AcrB in wild-type drug resistant Escherichia coli BW25113 assessed as potentiation of chloramphenicol-induced antibacterial activity by measuring chloramphenicol MIC at 128 ug/ml after 18 hrs by checkerboard method (reference value: 8 ug/ml)
Escherichia coli [7] = assay: Potentiation of erythromycin-induced antibacterial activity against AcrB-deficient Escherichia coli BW25113 assessed as erythromycin MIC at 256 ug/ml after 18 hrs by checkerboard method (reference value: 16 ug/ml); type: functional; settings: BW25113, 18 h
Escherichia coli BW25113 [8] = assay: Inhibition of AcrB in drug resistant Escherichia coli BW25113 assessed as reduction in nile red efflux at 100 uM pretreated for 15 mins followed by nile red addition measured after 3 hrs for 200 secs in presence of glucose by fluorimetric method
Escherichia coli BW25113 [9] = assay: Inhibition of AcrB in wild-type drug resistant Escherichia coli BW25113 assessed as potentiation of erythromycin-induced antibacterial activity by measuring FICI at 128 to 512 ug/ml after 18 hrs by checkerboard method
Escherichia coli BW25113 [10] = assay: Inhibition of AcrB in wild-type drug resistant Escherichia coli BW25113 assessed as potentiation of tetraphenyl phosphonium chloride-induced antibacterial activity by measuring tetraphenyl phosphonium chloride MIC at 512 ug/ml after 18 hrs by checkerboard method (reference value: 1024 ug/ml)
Escherichia coli BW25113 [11] = assay: Inhibition of AcrB in wild-type drug resistant Escherichia coli BW25113 assessed as potentiation of chloramphenicol-induced antibacterial activity by measuring chloramphenicol MIC at 512 ug/ml after 18 hrs by checkerboard method (reference value: 8 ug/ml)
Escherichia coli [12] = assay: Effect on rifampicin-induced antibacterial activity against wild-type drug resistant Escherichia coli BW25113 assessed as rifampicin MIC at 512 ug/ml after 18 hrs by checkerboard method (reference value: 16 ug/ml); type: functional; settings: BW25113, 18 h
Escherichia coli BW25113 [13] = assay: Inhibition of AcrB in wild-type drug resistant Escherichia coli BW25113 assessed as potentiation of erythromycin-induced antibacterial activity by measuring erythromycin MIC at 256 ug/ml after 18 hrs by checkerboard method (reference value: 128 ug/ml)
Escherichia coli [14] = assay: Effect on rifampicin-induced antibacterial activity against AcrB-deficient Escherichia coli BW25113 assessed as rifampicin MIC at 128 ug/ml after 18 hrs by checkerboard method (reference value: 16 ug/ml); type: functional; settings: BW25113, 18 h
Escherichia coli BW25113 [15] = assay: Inhibition of AcrB in wild-type drug resistant Escherichia coli BW25113 assessed as potentiation of chloramphenicol-induced antibacterial activity by measuring chloramphenicol MIC at 256 ug/ml after 18 hrs by checkerboard method (reference value: 8 ug/ml)
Escherichia coli BW25113 [16] = assay: Inhibition of AcrB in wild-type drug resistant Escherichia coli BW25113 assessed as reduction in nile red efflux at 50 uM pretreated for 15 mins followed by nile red addition measured after 3 hrs for 200 secs in presence of glucose by fluorimetric method
Escherichia coli BW25113 [17] = assay: Inhibition of AcrB in wild-type drug resistant Escherichia coli BW25113 assessed as potentiation of erythromycin-induced antibacterial activity by measuring erythromycin MIC at 512 ug/ml after 18 hrs by checkerboard method (reference value: 128 ug/ml)
Escherichia coli [18] = assay: Potentiation of chloramphenicol-induced antibacterial activity against AcrB-deficient Escherichia coli BW25113 assessed as chloramphenicol MIC at 512 ug/ml after 18 hrs by checkerboard method (reference value: 2 ug/ml); type: functional; settings: BW25113, 18 h
Escherichia coli [19] = assay: Effect on rifampicin-induced antibacterial activity against wild-type drug resistant Escherichia coli BW25113 assessed as rifampicin MIC at 256 ug/ml after 18 hrs by checkerboard method (reference value: 16 ug/ml); type: functional; settings: BW25113, 18 h
Escherichia coli BW25113 [20] = assay: Inhibition of AcrB in wild-type drug resistant Escherichia coli BW25113 assessed as potentiation of tetraphenyl phosphonium chloride-induced antibacterial activity by measuring FICI at 128 to 512 ug/ml after 18 hrs by checkerboard method
Escherichia coli BW25113 [21] = assay: Inhibition of AcrB in wild-type drug resistant Escherichia coli BW25113 assessed as potentiation of tetraphenyl phosphonium chloride-induced antibacterial activity by measuring tetraphenyl phosphonium chloride MIC at 128 ug/ml after 18 hrs by checkerboard method (reference value: 1024 ug/ml)
HEK293 = assay: Cytotoxicity against HEK293 cells at 512 to 1024 ug/ml measured every 60 mins for 20 hrs by RealTime-Glo MT cell viability assay; type: cell-based; settings: human, hek293, 20 h
Escherichia coli [22] = assay: Disruption of inner membrane potential in drug resistant Escherichia coli BW25113 at 512 ug/ml incubated for 10 mins measured for 60 secs by DiOC2(3) dye based fluorimetric method; type: functional
Escherichia coli BW25113 [23] = assay: Inhibition of […] in drug resistant Escherichia coli BW25113 assessed as increase in outer membrane permeability by measuring increase nitrocefin hydrolysis at 512 ug/ml measured over 30 mins in presence of CCCP by spectrophotometric method
Escherichia coli BW25113 [24] = assay: Inhibition of AcrB in wild-type drug resistant Escherichia coli BW25113 assessed as potentiation of tetraphenyl phosphonium chloride-induced antibacterial activity by measuring tetraphenyl phosphonium chloride MIC at 256 ug/ml after 18 hrs by checkerboard method (reference value: 1024 ug/ml)
Escherichia coli [25] = assay: Potentiation of erythromycin-induced antibacterial activity against AcrB-deficient Escherichia coli BW25113 assessed as erythromycin MIC at 128 ug/ml after 18 hrs by checkerboard method (reference value: 16 ug/ml); type: functional; settings: BW25113, 18 h
Escherichia coli [26] = assay: Potentiation of chloramphenicol-induced antibacterial activity against AcrB-deficient Escherichia coli BW25113 assessed as chloramphenicol MIC at 128 ug/ml after 18 hrs by checkerboard method (reference value: 2 ug/ml); type: functional; settings: BW25113, 18 h
Escherichia coli [27] = assay: Potentiation of erythromycin-induced antibacterial activity against AcrB-deficient Escherichia coli BW25113 assessed as erythromycin MIC at 512 ug/ml after 18 hrs by checkerboard method (reference value: 16 ug/ml); type: functional; settings: BW25113, 18 h
Escherichia coli [28] = assay: Potentiation of chloramphenicol-induced antibacterial activity against AcrB-deficient Escherichia coli BW25113 assessed as chloramphenicol MIC at 256 ug/ml after 18 hrs by checkerboard method (reference value: 2 ug/ml); type: functional; settings: BW25113, 18 h
Escherichia coli [29] = assay: Growth inhibition of wild-type drug-resistant Escherichia coli BW25113 after 18 hrs by resazurin dye based broth microdilution method
Escherichia coli [30] = assay: Potentiation of tetraphenyl phosphonium chloride-induced antibacterial activity against AcrB-deficient Escherichia coli BW25113 assessed as tetraphenyl phosphonium chloride MIC at 256 ug/ml after 18 hrs by checkerboard method (reference value: 64 ug/ml); type: functional; settings: BW25113, 18 h
Escherichia coli [31] = assay: Effect on rifampicin-induced antibacterial activity against wild-type drug resistant Escherichia coli BW25113 assessed as rifampicin MIC at 128 ug/ml after 18 hrs by checkerboard method (reference value: 16 ug/ml); type: functional; settings: BW25113, 18 h
Escherichia coli [32] = assay: Growth inhibition of drug-sensitive AcrB-deficient Escherichia coli BW25113 at 1024 ug/ml after 18 hrs by resazurin dye based broth microdilution method
Escherichia coli [33] = assay: Effect on rifampicin-induced antibacterial activity against AcrB-deficient Escherichia coli BW25113 assessed as rifampicin MIC at 512 ug/ml after 18 hrs by checkerboard method (reference value: 16 ug/ml); type: functional; settings: BW25113, 18 h

Compound `CC(C)CCOc1cc(C(N)=O)cc2ccccc12` has an MIC (Escherichia coli [1]) of 16 µg/mL, a fractional inhibitory concentration index (FICI) (Escherichia coli BW25113 [2]) of 0.25 and an MIC (Escherichia coli BW25113 [3]) of 128 µg/mL. The MIC (Escherichia coli [4]) was 64 µg/mL, the Activity (HepG2) was “Non-Toxic” and the MIC (Escherichia coli [5]) was 64 µg/mL. For the same compound, the MIC (Escherichia coli BW25113 [6]) was 8 µg/mL, the MIC (Escherichia coli [7]) was 16 µg/mL and the inhibition (Escherichia coli BW25113 [8]) was “Active”. The fractional inhibitory concentration index (FICI) (Escherichia coli BW25113 [9]) was 0.25, the MIC (Escherichia coli BW25113 [10]) was 128 µg/mL and the MIC (Escherichia coli BW25113 [11]) was 2 µg/mL. For the same compound, the MIC (Escherichia coli [12]) was 16 µg/mL, the MIC (Escherichia coli BW25113 [13]) was 64 µg/mL and the MIC (Escherichia coli [14]) was 16 µg/mL. For the same compound, the MIC (Escherichia coli BW25113 [15]) was 4 µg/mL, the inhibition (Escherichia coli BW25113 [16]) was “Active” and the MIC (Escherichia coli BW25113 [17]) was 16 µg/mL. For the same compound, the MIC (Escherichia coli [18]) was 2 µg/mL, the MIC (Escherichia coli [19]) was 16 µg/mL and the fractional inhibitory concentration index (FICI) (Escherichia coli BW25113 [20]) was 0.25. The MIC (Escherichia coli BW25113 [21]) was 1020 µg/mL, the Activity (HEK293) was “Non-Toxic” and the Activity (Escherichia coli [22]) was “inactive”. The inhibition (Escherichia coli BW25113 [23]) was “inactive”, the MIC (Escherichia coli BW25113 [24]) was 512 µg/mL and the MIC (Escherichia coli [25]) was 16 µg/mL. It also gave an MIC (Escherichia coli [26]) of 2 µg/mL, an MIC (Escherichia coli [27]) of 16 µg/mL and an MIC (Escherichia coli [28]) of 2 µg/mL. The “growth inhibition (GI)” value (Escherichia coli [29]) was “Non-Toxic”, the MIC (Escherichia coli [30]) was 64 µg/mL and the MIC (Escherichia coli [31]) was 16 µg/mL. For the same compound, the “growth inhibition (GI)” value (Escherichia coli [32]) was “Toxic” and the MIC (Escherichia coli [33]) was 16 µg/mL.
